Test results from patent publication US20070049564A1 (Wyeth, priority 2005, published 2007).
≈ marks a conversion by molar mass, not a printed value. Like-named read-outs stand apart in the source and are kept apart here.

What was measured:
S. aureus GC 1131 = assay: MIC, broth microdilution; settings: Staphylococcus aureus
S. pneumoniae+ GC 4465 = assay: MIC, broth microdilution; settings: Streptococcus pneumoniae
E. coli GC 2234 = assay: MIC, broth microdilution; settings: Escherichia coli
S. aureus GC 1079 = assay: MIC, broth microdilution; settings: Staphylococcus aureus
S. aureus GC 6469 = assay: MIC, broth microdilution; settings: Staphylococcus aureus
E. coli GC 2233 = assay: MIC, broth microdilution; settings: Escherichia coli
E. faecalis GC 4555 = assay: MIC, broth microdilution; settings: Enterococcus faecalis
E. faecium GC 2243 = assay: MIC, broth microdilution; settings: Enterococcus faecium
Staph. = assay: Range of MIC for Staph. strains, including MRSA; settings: Staphylococcus aureus, MRSA
S. aureus GC 6466 = assay: MIC, broth microdilution; settings: Staphylococcus aureus
E. coli GC 6465 = assay: MIC, broth microdilution; settings: Escherichia coli
c. albicans GC 3066 = assay: MIC, broth microdilution
E. coli GC 2236 = assay: MIC, broth microdilution; settings: Escherichia coli
E. coli = assay: Range of MIC for E. coli strains; settings: Escherichia coli
S. pyogenes GC 4563 = assay: MIC, broth microdilution; settings: Streptococcus pyogenes
E. coli GC 1073 = assay: MIC, broth microdilution; settings: Escherichia coli
S. aureus GC 4536 = assay: MIC, broth microdilution; settings: Staphylococcus aureus
E. faecalis GC 2265 = assay: MIC, broth microdilution; settings: Enterococcus faecalis
E. coli GC 2272 = assay: MIC, broth microdilution; settings: Escherichia coli
S. epidermidis GC 4935 = assay: MIC, broth microdilution; settings: Staphylococcus epidermidis

MIC (S. aureus GC 1131; GC1131, read-out: MINIMAL INHIBITORY CONCENTRATION MIC, pre-incubated in Mouse Serum): 0.5 µg/mL (≈ 0.662 µM)
MIC (S. aureus GC 1131; GC1131, read-out: MINIMAL INHIBITORY CONCENTRATION MIC, pre-incubated in Water): 0.5 µg/mL (≈ 0.662 µM)
MIC (S. pneumoniae+ GC 4465; read-out: MINIMAL INHIBITORY CONCENTRATION MIC, pre-incubated in Mouse Serum): 4 µg/mL (≈ 5.29 µM)
MIC (S. pneumoniae+ GC 4465; read-out: MINIMAL INHIBITORY CONCENTRATION MIC, pre-incubated in Water): 4 µg/mL (≈ 5.29 µM)
MIC (E. coli GC 2234; GC2234, read-out: MINIMAL INHIBITORY CONCENTRATION MIC, pre-incubated in Mouse Serum): 1 µg/mL (≈ 1.32 µM)
MIC (E. coli GC 2234; GC2234, read-out: MINIMAL INHIBITORY CONCENTRATION MIC, pre-incubated in Water): > 64 µg/mL
MIC (S. aureus GC 1079; GC1079, read-out: MINIMAL INHIBITORY CONCENTRATION MIC, pre-incubated in Mouse Serum): 1 µg/mL (≈ 1.32 µM)
MIC (S. aureus GC 1079; GC1079, read-out: MINIMAL INHIBITORY CONCENTRATION MIC, pre-incubated in Water): 2 µg/mL (≈ 2.65 µM)
MIC (S. aureus GC 6469; GC6469, read-out: MINIMAL INHIBITORY CONCENTRATION MIC, pre-incubated in Mouse Serum): 2 µg/mL (≈ 2.65 µM)
MIC (S. aureus GC 6469; GC6469, read-out: MINIMAL INHIBITORY CONCENTRATION MIC, pre-incubated in Water): 4 µg/mL (≈ 5.29 µM)
MIC (E. coli GC 2233; GC2233, read-out: MINIMAL INHIBITORY CONCENTRATION MIC, pre-incubated in Mouse Serum): 2 µg/mL (≈ 2.65 µM)
MIC (E. coli GC 2233; GC2233, read-out: MINIMAL INHIBITORY CONCENTRATION MIC, pre-incubated in Water): 32 µg/mL (≈ 42.3 µM)
MIC (E. faecalis GC 4555; GC4555, read-out: MINIMAL INHIBITORY CONCENTRATION MIC, pre-incubated in Mouse Serum): 1 µg/mL (≈ 1.32 µM)
MIC (E. faecalis GC 4555; GC4555, read-out: MINIMAL INHIBITORY CONCENTRATION MIC, pre-incubated in Water): 2 µg/mL (≈ 2.65 µM)
MIC (E. faecium GC 2243; GC2243, read-out: MINIMAL INHIBITORY CONCENTRATION MIC, pre-incubated in Mouse Serum): 0.5 µg/mL (≈ 0.662 µM)
MIC (E. faecium GC 2243; GC2243, read-out: MINIMAL INHIBITORY CONCENTRATION MIC, pre-incubated in Water): 1 µg/mL (≈ 1.32 µM)
MIC (Staph.; read-out: Range of MIC, Staph (Mouse Serum)): 0.25 to 2 µg/mL (≈ 0.331 to 2.65 µM)
MIC (Staph.; read-out: Range of MIC, Staph (Water)): 0.5 to 4 µg/mL (≈ 0.662 to 5.29 µM)
MIC (Staph.; read-out: Range of MIC, Staph. (mouse serum)): 0.25 to 2 µg/mL (≈ 0.331 to 2.65 µM)
MIC (Staph.; read-out: Range of MIC, Staph. (water)): 0.5 to 4 µg/mL (≈ 0.662 to 5.29 µM)
MIC (S. aureus GC 6466; GC6466, read-out: MINIMAL INHIBITORY CONCENTRATION MIC, pre-incubated in Mouse Serum): 0.25 µg/mL (≈ 0.331 µM)
MIC (S. aureus GC 6466; GC6466, read-out: MINIMAL INHIBITORY CONCENTRATION MIC, pre-incubated in Water): 0.25 µg/mL (≈ 0.331 µM)
MIC (E. coli GC 6465; GC6465, read-out: MINIMAL INHIBITORY CONCENTRATION MIC, pre-incubated in Mouse Serum): 8 µg/mL (≈ 10.6 µM)
MIC (E. coli GC 6465; GC6465, read-out: MINIMAL INHIBITORY CONCENTRATION MIC, pre-incubated in Water): > 64 µg/mL
MIC (c. albicans GC 3066; Candida albicans, GC3066, read-out: MINIMAL INHIBITORY CONCENTRATION MIC): > 64 µg/mL
MINIMAL INHIBITORY CONCENTRATION MIC (c. albicans GC 3066; pre-incubated in Water): >64 UG/ML
MIC (E. coli GC 2236; GC2236, read-out: MINIMAL INHIBITORY CONCENTRATION MIC, pre-incubated in Mouse Serum): 2 µg/mL (≈ 2.65 µM)
MIC (E. coli GC 2236; GC2236, read-out: MINIMAL INHIBITORY CONCENTRATION MIC, pre-incubated in Water): 64 µg/mL (≈ 84.7 µM)
MIC (E. coli; 20 h, read-out: Range of MIC, E. coli (Mouse Serum)): 1 to 2 µg/mL (≈ 1.32 to 2.65 µM)
MIC (E. coli; read-out: Range of MIC, E. coli (mouse serum)): 1 to 2 µg/mL (≈ 1.32 to 2.65 µM)
MIC (S. pyogenes GC 4563; GC4563, read-out: MINIMAL INHIBITORY CONCENTRATION MIC, pre-incubated in Mouse Serum): 0.12 µg/mL (≈ 0.159 µM)
MIC (S. pyogenes GC 4563; GC4563, read-out: MINIMAL INHIBITORY CONCENTRATION MIC, pre-incubated in Water): 0.25 µg/mL (≈ 0.331 µM)
MIC (E. coli GC 1073; GC1073, read-out: MINIMAL INHIBITORY CONCENTRATION MIC, pre-incubated in Mouse Serum): 2 µg/mL (≈ 2.65 µM)
MIC (E. coli GC 1073; GC1073, read-out: MINIMAL INHIBITORY CONCENTRATION MIC, pre-incubated in Water): > 64 µg/mL
MIC (S. aureus GC 4536; GC4536, read-out: MINIMAL INHIBITORY CONCENTRATION MIC, pre-incubated in Mouse Serum): 0.5 µg/mL (≈ 0.662 µM)
MIC (S. aureus GC 4536; GC4536, read-out: MINIMAL INHIBITORY CONCENTRATION MIC, pre-incubated in Water): 0.5 µg/mL (≈ 0.662 µM)
MIC (E. faecalis GC 2265; GC2265, read-out: MINIMAL INHIBITORY CONCENTRATION MIC, pre-incubated in Mouse Serum): 2 µg/mL (≈ 2.65 µM)
MIC (E. faecalis GC 2265; GC2265, read-out: MINIMAL INHIBITORY CONCENTRATION MIC, pre-incubated in Water): 2 µg/mL (≈ 2.65 µM)
MIC (E. coli GC 2272; GC2272, read-out: MINIMAL INHIBITORY CONCENTRATION MIC, pre-incubated in Mouse Serum): 2 µg/mL (≈ 2.65 µM)
MIC (E. coli GC 2272; GC2272, read-out: MINIMAL INHIBITORY CONCENTRATION MIC, pre-incubated in Water): 64 µg/mL (≈ 84.7 µM)
MIC (S. epidermidis GC 4935; GC4935, read-out: MINIMAL INHIBITORY CONCENTRATION MIC, pre-incubated in Mouse Serum): 1 µg/mL (≈ 1.32 µM)
MIC (S. epidermidis GC 4935; GC4935, read-out: MINIMAL INHIBITORY CONCENTRATION MIC, pre-incubated in Water): 2 µg/mL (≈ 2.65 µM)
Compound: CCCN(CC(=O)Nc1cc(N(C)C)c2c(c1O)C(=O)C1=C(O)[C@]3(O)C(=O)C(C(N)=O)=C(O)[C@@H](N(C)C)[C@@H]3C[C@@H]1C2)C(=O)OCOC(=O)c1cccs1 [Example 25, ({[(2-{[(5aR,6aS,7S,10aS)-9-(aminocarbonyl)-4,7-bis(dimethylamino)-1,8,10a,11-tetrahydroxy-10,12-dioxo-5,5a,6,6a,7,10,10a,12-octahydrotetracen-2-yl]amino}-2-oxoethyl)(propyl)amino]carbonyl}oxy)methyl thiophene-2-carboxylate]
